The values below come from ChEMBL document CHEMBL4304824, “Austalides V and W, new meroterpenoids from the fungus Aspergillus ustus and their antitumor activities” (Bioorg Med Chem Lett, 2019).

Active and inactive are the calls of the source. The calls are words filed in the database; no cut-off is given here.

Series [1] has as its system LNCaP. The experiment in a line: Cytotoxicity against human LNCAP cells assessed as reduction in cell viability incubated for 12 hrs by xCELLigence RTCA analysis. It is filed as functional, cell-based.
For series [2], the system named is LNCaP. The experiment in a line: Cytotoxicity against human LNCAP cells assessed as reduction in cell viability incubated for 48 hrs by xCELLigence RTCA analysis. The class given is functional, cell-based.
For series [3], the system named is LNCaP. Nature of the series: Inhibition of cell migration of human LNCAP cells at 8.9 uM measured every 10 mins for 24 hrs by xCELLigence RTCA analysis. It is filed as functional, cell-based.
The subject of series [4] is T-24. The experiment in a line: Cytotoxicity against human T24 cells assessed as reduction in cell viability incubated for 48 hrs by xCELLigence RTCA analysis. The class given is functional, cell-based. The settings on record: T-24, 48 h.
Series [5] has as its system LNCaP. Nature of the series: Antiproliferation activity against human LNCAP cells assessed as reduction in cell density incubated for 72 hrs by microscopic method. It is filed as functional, cell-based.
Series [6] has as its system DU-145. The experiment in a line: Cytotoxicity against human DU145 cells assessed as reduction in cell viability incubated for 48 hrs by xCELLigence RTCA analysis. The following applies: DU-145, 48 h. The class given is functional, cell-based.
Series [7] has as its system LNCaP. Nature of the series: Inhibition of Akt/mTOR pathway in human LNCAP cells assessed as reduction in AKT3 phosphorylation at S473/T308 residues at 50 uM incubated for 48 hrs by chemiluminescence reagent based autoradiography. The class given is cell-based.
The subject of series [8] is LNCaP. Nature of the series: Inhibition of Akt/mTOR pathway in human LNCAP cells assessed as reduction in p70S6 kinase phosphorylation at T421/S424 residues at 50 uM incubated for 48 hrs by chemiluminescence reagent based autoradiography. It is filed as cell-based.
Series [9] deals with LNCaP. The experiment in a line: Effect on total HSP60 level in human LNCAP cells at 50 uM incubated for 48 hrs by chemiluminescence reagent based autoradiography. It is filed as ADME, cell-based.
The subject of series [10] is LNCaP. Nature of the series: Inhibition of Akt/mTOR pathway in human LNCAP cells assessed as reduction in AKT2 phosphorylation at S473/T308 residues at 50 uM incubated for 48 hrs by chemiluminescence reagent based autoradiography. The class given is cell-based.
Series [11] concerns LNCaP. Nature of the series: Inhibition of Akt/mTOR pathway in human LNCAP cells assessed as reduction in AKT1 phosphorylation at S473/T308 residues at 50 uM incubated for 48 hrs by chemiluminescence reagent based autoradiography. The class given is cell-based.
Series [12] has as its system LNCaP. The experiment in a line: Inhibition of cell migration of human LNCAP cells at 8.8 uM measured every 10 mins for 24 hrs by xCELLigence RTCA analysis. The class given is functional, cell-based.
Series [13] relates to LNCaP. The experiment in a line: Inhibition of Akt/mTOR pathway in human LNCAP cells assessed as reduction in PRAS40 phosphorylation at T246 residue at 50 uM incubated for 48 hrs by chemiluminescence reagent based autoradiography. The class given is cell-based.
Series [14] has as its system LNCaP. The experiment in a line: Inhibition of Akt/mTOR pathway in human LNCAP cells assessed as reduction in mTOR phosphorylation at […] residue at 50 uM incubated for 48 hrs by chemiluminescence reagent based autoradiography. The class given is cell-based.
Series [15] concerns the target Focal adhesion kinase 1 (Homo sapiens) (UniProt Q05397). The experiment in a line: Inhibition of FAK phosphorylation at Y397 residue in human LNCAP cells at 50 uM incubated for 48 hrs by chemiluminescence reagent based autoradiography. The class given is cell-based.
The target of series [16] is Proto-oncogene tyrosine-protein kinase Src (Homo sapiens) (UniProt P12931). The experiment in a line: Inhibition of c-Src phosphorylation at Y419 residue in human LNCAP cells at 50 uM incubated for 48 hrs by chemiluminescence reagent based autoradiography. The class given is cell-based.
Sequence of Proto-oncogene tyrosine-protein kinase Src (Homo sapiens) (P12931 2-536 limits assumed): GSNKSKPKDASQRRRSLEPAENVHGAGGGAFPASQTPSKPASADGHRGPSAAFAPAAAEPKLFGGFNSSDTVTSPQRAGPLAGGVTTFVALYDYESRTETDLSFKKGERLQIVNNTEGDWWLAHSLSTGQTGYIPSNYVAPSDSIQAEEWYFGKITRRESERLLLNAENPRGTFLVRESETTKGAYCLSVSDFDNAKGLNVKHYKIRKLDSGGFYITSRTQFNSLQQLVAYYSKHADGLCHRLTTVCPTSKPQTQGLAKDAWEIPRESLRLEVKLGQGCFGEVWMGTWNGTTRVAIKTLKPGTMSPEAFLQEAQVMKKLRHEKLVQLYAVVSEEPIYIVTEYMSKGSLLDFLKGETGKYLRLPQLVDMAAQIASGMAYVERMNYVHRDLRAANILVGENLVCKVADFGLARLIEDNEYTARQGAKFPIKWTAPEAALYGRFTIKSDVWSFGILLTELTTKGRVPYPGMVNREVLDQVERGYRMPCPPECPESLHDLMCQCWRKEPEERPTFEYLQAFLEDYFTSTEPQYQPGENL
The test system of series [17] is LNCaP. Nature of the series: Cytotoxicity against human LNCAP cells assessed as reduction in cell viability measured after 25 hrs by xCELLigence RTCA analysis. The class given is functional, cell-based.

Sequence of Focal adhesion kinase 1 (Homo sapiens) (Q05397 2-1052 limits assumed): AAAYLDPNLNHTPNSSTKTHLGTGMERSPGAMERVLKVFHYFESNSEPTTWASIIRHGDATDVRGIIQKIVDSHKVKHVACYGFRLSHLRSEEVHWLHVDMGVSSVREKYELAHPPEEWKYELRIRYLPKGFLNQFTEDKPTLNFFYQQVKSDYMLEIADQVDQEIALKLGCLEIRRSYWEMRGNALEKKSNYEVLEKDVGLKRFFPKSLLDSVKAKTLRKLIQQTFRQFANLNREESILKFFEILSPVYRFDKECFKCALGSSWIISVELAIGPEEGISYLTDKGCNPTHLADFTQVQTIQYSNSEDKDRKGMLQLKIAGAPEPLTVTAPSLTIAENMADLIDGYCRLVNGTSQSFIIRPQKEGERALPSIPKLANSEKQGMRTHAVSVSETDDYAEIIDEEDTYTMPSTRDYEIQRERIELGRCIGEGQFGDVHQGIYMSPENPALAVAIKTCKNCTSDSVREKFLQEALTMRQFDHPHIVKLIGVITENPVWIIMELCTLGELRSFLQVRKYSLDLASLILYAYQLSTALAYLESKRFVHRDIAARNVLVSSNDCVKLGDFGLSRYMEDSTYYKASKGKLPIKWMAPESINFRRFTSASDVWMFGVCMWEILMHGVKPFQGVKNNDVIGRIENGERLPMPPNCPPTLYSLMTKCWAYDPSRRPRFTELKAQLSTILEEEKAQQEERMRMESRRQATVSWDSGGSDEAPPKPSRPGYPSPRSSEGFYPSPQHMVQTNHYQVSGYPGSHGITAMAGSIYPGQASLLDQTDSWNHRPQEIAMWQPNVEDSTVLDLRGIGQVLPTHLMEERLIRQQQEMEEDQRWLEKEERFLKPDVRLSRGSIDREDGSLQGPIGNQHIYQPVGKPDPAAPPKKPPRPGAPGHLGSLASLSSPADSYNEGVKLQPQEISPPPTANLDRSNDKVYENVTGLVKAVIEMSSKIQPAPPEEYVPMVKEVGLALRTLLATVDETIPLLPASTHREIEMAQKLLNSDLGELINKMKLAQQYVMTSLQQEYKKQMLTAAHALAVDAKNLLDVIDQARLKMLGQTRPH

On to `COc1c2c(c(C)c3c1C(=O)OC3)O[C@@]1(C)C[C@]3(O)OC[C@]4(C)O[C@@]5(OC)C[C@@H](OC(C)=O)[C@](C)([C@H]1C2)[C@]43O5`, for which the inhibition result in series [1] was “Dose-dependent effect”. The IC50 in series [2] worked out at 20 µM; in series [4] it was 64 µM; in [6], 53 µM. In addition, the inhibition entry in series [3] is “Active”. Moreover, the result in series [5] was Active.
Take `COc1c2c(c(C)c3c1C(=O)OC3)O[C@@]1(C)C[C@]3(O)OC[C@]4(C)O[C@@]5(OC)CC[C@](C)([C@H]1C2)[C@]43O5`: the inhibition result in series [7], in [8], in series [10], in series [11], in series [12] and in series [13] was “Active” throughout. In addition, the inhibition entry in series [14], in series [15], in [16] and in series [17] was “Active” in each case. Besides, in series [9], the Activity result is on record as “Toxic”. The IC50 in series [2] was found to be 27 µM; in series [4] it was 73 µM; in series [6], 73 µM. For the same compound, the outcome in series [5] was Active.

One may read the IC50 as the concentration needed to halve the response being measured.
